Columns and labels:
[1] = tested on: genotype 1b-Con1 subgenomic replicon cell line; test: microbe, parasite or virus in culture; format: cell-based, HCV; details: Hepatitis C virus, read-out: EC50 1b
[2] = tested on: genotype 1a-H77 subgenomic replicon cell line; test: microbe, parasite or virus in culture; format: cell-based, HCV; details: Hepatitis C virus, read-out: EC50 1a

Row | Structure (SMILES) | EC50 [1] | EC50 [2]
1 | COc1c(N2Cc3ccc(NS(C)(=O)=O)cc3C2)cc(-n2ccc(=O)[nH]c2=O)cc1C(C)(C)C [IB-L0-2.79, N-(2-(3-tert-butyl-5-(2,4-dioxo-3,4-dihydropyrimidin-1(2H)-yl)-2-methoxyphenyl)isoindolin-5-yl)methanesulfonamide] | 100 to 1000 nM | 100 to 1000 nM
2 | COc1c(/C=C/c2ccc(NS(C)(=O)=O)cc2)cc(-n2ccc(=O)[nH]c2=O)cc1C(C)(C)C [IB-L1-1.1, (E)-N-(4-(3-tert-butyl-5-(2,4-dioxo-3,4-dihydropyrimidin-1(2H)-yl)-2-methoxystyryl)phenyl)methanesulfonamide] | < 10 nM | < 10 nM
3 | COc1c(/C=C/c2ccc(NS(C)(=O)=O)cc2C(=O)O)cc(-n2ccc(=O)[nH]c2=O)cc1C(C)(C)C [IB-L1-1.4, (E)-2-(3-tert-butyl-5-(2,4-dioxo-3,4-dihydropyrimidin-1(2H)-yl)-2-methoxystyryl)-5-(methylsulfonamido)benzoic acid] | < 10 nM | 10 to 100 nM
4 | COc1c(/C=C/c2ccc(NS(C)(=O)=O)c(F)c2)cc(-n2ccc(=O)[nH]c2=O)cc1C(C)(C)C [IB-L1-1.5, (E)-N-(4-(3-tert-butyl-5-(2,4-dioxo-3,4-dihydropyrimidin-1(2H)-yl)-2-methoxystyryl)-2-fluorophenyl)methanesulfonamide] | < 10 nM | 10 to 100 nM
5 | COc1c(/C=C/c2ccc(NS(C)(=O)=O)cc2C=O)cc(-n2ccc(=O)[nH]c2=O)cc1C(C)(C)C [IB-L1-1.6, N-(4-{(E)-2-[3-tert-Butyl-5-(2,4-dioxo-3,4-dihydro-2H-pyrimidin-1-yl)-2-methoxy-phenyl]-vinyl}-3-formyl-phenyl)-methanesulfonamide] | < 10 nM | < 10 nM
6 | COC(=O)c1cc(NS(C)(=O)=O)ccc1/C=C/c1cc(-n2ccc(=O)[nH]c2=O)cc(C(C)(C)C)c1OC [IB-L1-1.7, (K)-methyl 2-(3-tert-butyl-5-(2,4-dioxo-3,4-dihydropyrimidin-1(2H)-yl)-2-methoxystyryl)-5-(methylsulfonamido)benzoate] | < 10 nM | < 10 nM
7 | COc1c(/C=C/c2ccc(NS(C)(=O)=O)cc2C=NO)cc(-n2ccc(=O)[nH]c2=O)cc1C(C)(C)C [IB-L1-1.8, N-(4-{(E)-2-[3-tert-Butyl-5-(2,4-dioxo-3,4-dihydro-2H-pyrimidin-1-yl)-2-methoxy-phenyl]-vinyl}-3-(hydroxyimino-methyl)-phenyl)-methanesulfonamide] | < 10 nM | 10 to 100 nM
8 | COCCNC(=O)c1cc(NS(C)(=O)=O)ccc1/C=C/c1cc(-n2ccc(=O)[nH]c2=O)cc(C(C)(C)C)c1OC [IB-L1-1.9, 2-{(E)-2-[3-tert-Butyl-5-(2,4-dioxo-3,4-dihydro-2H-pyrimidin-1-yl)-2-methoxy-phenyl]-vinyl}-5-methanesulfonylamino-N-(2-methoxy-ethyl)-benzamide] | < 10 nM | 10 to 100 nM
9 | COc1c(/C=C/c2ccc(NS(C)(=O)=O)cc2CO)cc(-n2ccc(=O)[nH]c2=O)cc1C(C)(C)C [IB-L1-1.10, (E)-N-(4-(3-tert-butyl-5-(2,4-dioxo-3,4-dihydropyrimidin-1(2H)-yl)-2-methoxystyryl)-3-(hydroxymethyl)phenyl)methanesulfonamide] | < 10 nM | < 10 nM
10 | CCOC(=O)c1cc(NS(C)(=O)=O)ccc1/C=C/c1cc(-n2ccc(=O)[nH]c2=O)cc(C(C)(C)C)c1OC [IB-L1-1.11, 2-{(E)-2-[3-tert-Butyl-5-(2,4-dioxo-3,4-dihydro-2H-pyrimidin-1-yl)-2-methoxy-phenyl]-vinyl}-5-methanesulfonylamino-benzoic acid ethyl ester] | < 10 nM | 10 to 100 nM
11 | CC(C)(C)c1cc(-n2ccc(=O)[nH]c2=O)cc(/C=C/c2ccc(NS(C)(=O)=O)cc2)c1Cl [IB-L1-1.12, N-(4-{(E)-2-[3-tert-Butyl-2-chloro-5-(2,4-dioxo-3,4-dihydro-2H-pyrimidin-1-yl)-phenyl]-vinyl}-phenyl)-methanesulfonamide] | 10 to 100 nM | 10 to 100 nM
12 | COCc1cc(NS(C)(=O)=O)ccc1/C=C/c1cc(-n2ccc(=O)[nH]c2=O)cc(C(C)(C)C)c1OC [IB-L1-1.13, (E)-N-(4-(3-tert-butyl-5-(2,4-dioxo-3,4-dihydropyrimidin-1(2H)-yl)-2-methoxystyryl)-3-(methoxymethyl)phenyl)methanesulfonamide] | < 10 nM | 10 to 100 nM
13 | COc1c(/C=C/c2ccc(NS(C)(=O)=O)cc2C(=O)N(C)C)cc(-n2ccc(=O)[nH]c2=O)cc1C(C)(C)C [IB-L1-1.14, 2-{(E)-2-[3-tert-Butyl-5-(2,4-dioxo-3,4-dihydro-2H-pyrimidin-1-yl)-2-methoxy-phenyl]-vinyl}-5-methanesulfonylamino-N,N-dimethyl-benzamide] | < 10 nM | 10 to 100 nM
14 | COc1c(/C=C/c2cc(F)c(NS(C)(=O)=O)cc2C)cc(-n2ccc(=O)[nH]c2=O)cc1C(C)(C)C [IB-L1-1.15, (E)-N-(4-(3-tert-butyl-5-(2,4-dioxo-3,4-dihydropyrimidin-1 (2H)-yl)-2-methoxystyryl)-2-fluoro-5-methylphenyl)methanesulfonamide] | < 10 nM | < 10 nM
15 | COc1c(/C=C/c2ccc(NS(C)(=O)=O)cc2-c2ncc[nH]2)cc(-n2ccc(=O)[nH]c2=O)cc1C(C)(C)C [IB-L1-1.16, (E)-N-(4-(3-tert-butyl-5-(2,4-dioxo-3,4-dihydropyrimidin-1(2H)-yl)-2-methoxystyryl)-3-(1H-imidazol-2-yl)phenyl)methanesulfonamide] | 10 to 100 nM | 100 to 1000 nM
16 | CNC(=O)c1cc(NS(C)(=O)=O)ccc1/C=C/c1cc(-n2ccc(=O)[nH]c2=O)cc(C(C)(C)C)c1OC [IB-L1-1.17, 2-{(E)-2-[3-tert-butyl-5-(2,4-dioxo-3,4-dihydro-2H-pyrimidin-1-yl)-2-methoxy-phenyl]-vinyl}-5-methanesulfonylamino-N-methyl-benzamide] | < 10 nM | 10 to 100 nM
17 | COc1c(/C=C/c2ccc(NS(C)(=O)=O)cc2C(=O)N(C)C2CCS(=O)(=O)C2)cc(-n2ccc(=O)[nH]c2=O)cc1C(C)(C)C (stereo not shown) [IB-L1-1.18, 2-{(E)-2-[3-tert-butyl-5-(2,4-dioxo-3,4-dihydro-2H-pyrimidin-1-yl)-2-methoxy-phenyl]-vinyl}-N-(1,1-dioxo-tetrahydro-1lambda*6*-thiophen-3-yl)-5-methanesulfonylamino-N-methyl-benzamide] | 10 to 100 nM | 10 to 100 nM
18 | CO/N=C/c1cc(NS(C)(=O)=O)ccc1/C=C/c1cc(-n2ccc(=O)[nH]c2=O)cc(C(C)(C)C)c1OC [IB-L1-1.19] | < 10 nM | 10 to 100 nM
19 | COc1c(/C=C/c2ccc(NS(C)(=O)=O)cc2)cc(-n2cc(Cl)c(=O)[nH]c2=O)cc1C(C)(C)C [IB-L1-1.20, N-(4-{(E)-2-[3-tert-butyl-5-(5-chloro-2,4-dioxo-3,4-dihydro-2H-pyrimidin-1-yl)-2-methoxy-phenyl]-vinyl}-phenyl)-methanesulfonamide] | < 10 nM | 10 to 100 nM
20 | COc1c(/C=C/c2ccc(NS(C)(=O)=O)cc2C(N)=O)cc(-n2ccc(=O)[nH]c2=O)cc1C(C)(C)C [IB-L1-1.21, 2-{(E)-2-[3-tert-butyl-5-(2,4-dioxo-3,4-dihydro-2H-pyrimidin-1-yl)-2-methoxy-phenyl]-vinyl}-5-methanesulfonylamino-benzamide] | < 10 nM | 10 to 100 nM
